Structures can show the parent of a compound that is named as a salt.
What was measured:
[1] = target: recombinant human 5-HT4 receptor (Homo sapiens (Human), UniProt Q13639); assay: Determination of EC50 values for 5-HT4 receptor (CHO cells, pCRE-Luc reporter); type: cell-based; conditions: CHO cells expressing human 5-HT4 receptor, luciferase activity, 4 hours incubation
Method: A stable CHO cell line expressing recombinant human 5-HT4 receptor and pCRE-Luc reporter system was used for cell-based assay. The assay offers a non-radioactive based approach to determine binding of a compound to GPCRs. In this specific assay, the level of intracellular cyclic AMP which is modulated by activation or inhibition of the receptor is measured. The recombinant cells harbor luciferase reporter gene under the control of cAMP response element.
The above cells were grown in 96 well clear bottom white plates in Hams F12 medium containing 10% fetal bovine serum (FBS). Prior to the addition of compounds or standard agonist, cells were serum starved overnight. Increasing concentrations of test compounds were added in OptiMEM medium to the cells. The incubation was continued at 37° C. in CO2 incubator for 4 hours. Medium was removed and cells were washed with phosphate buffered saline. The cells were lysed and luciferase activity was measured in a Luminometer. Luminescence units were plotted against the compound concentrations using Graphpad software.

[2] = Rodent pharmacokinetic study; type: in vivo, Male Wister rats; conditions: plasma, Wistar/Male rat
Method: Three to five animals were housed in each cage. […] Animals were fasted over night before oral dosing (p.o) and food pellets were allowed 2 hours post dosing, whereas intravenous dosing food and water were provided as ad libitum. Three rats were dosed with compounds of formula (I) (10 mg/kg) orally and intravenously (05 mg/kg).
At each time point blood was collected through jugular vein and immediately replenish with an equivalent volume of normal saline from freely moving rats. Collected blood was transferred into a labeled eppendr off containing 10 μL of heparin as anticoagulant. Typically blood samples were collected as following time points: Pre dose, 0.08 (only i.v.), 0.25, 0.5, 1, 2, 4, 6, 8, and 24 hours post dose (n=3). Blood was centrifuged at 4000 rpm for 10 minutes. Plasma was prepared and stored frozen at −20° C. until analysis.
Pharmacokinetic parameters Cmax, Tmax, AUCt, T1/2 and Bioavailability were calculated by non-compartmental model using standard non-compartmental model by using WinNonLin 5.0.1 or Phoenix WinNonlin 6.2 version Software package.

Male Wister rats = assay: Object recognition task model; type: in vivo; conditions: p.o., rat
Method: The cognition enhancing properties of compounds of this invention were estimated by using this model.
Male Wister rats (230-280 grams) were used as experimental animals. Four animals were housed in each cage. […] Also the rats were habituated to individual arenas for 1 hour in the absence of any objects.
One group of 12 rats received vehicle (1 mL/Kg) orally and another set of animals received compound of the formula (I) either orally or i.p., before one hour of the familiar (T1) and choice trial (T2).
The experiment was carried out in a 50×50×50 cm open field made up of acrylic. In the familiarization phase, (T1), the rats were placed individually in the open field for 3 minutes, in which two identical objects (plastic bottles, 12.5 cm height×5.5 cm diameter) covered in yellow masking tape alone (a1 and a2) were positioned in two adjacent corners, 10 cms from the walls. After 24 hours of the (T1) trial for long-term memory test, the same rats were placed in the same arena as they were placed in T1 trial. Choice phase (T2) rats were allowed to explore the open field for 3 minutes in presence of one familiar object (a3) and one novel object (b) (Amber color glass bottle, 12 cm high and 5 cm in diameter). Familiar objects presented similar textures, colors and sizes. During the T1 and T2 trial, explorations of each object (defined as sniffing, licking, chewing or having moving vibrissae whilst directing the nose towards the object at a distance of less than 1 cm) were recorded separately by stopwatch. […] T1 is the total time spent exploring the familiar objects (a1+a2). T2 is the total time spent exploring the familiar object and novel object (a3+b).

Chain of recombinant human 5-HT4 receptor (Q13639 whole entry): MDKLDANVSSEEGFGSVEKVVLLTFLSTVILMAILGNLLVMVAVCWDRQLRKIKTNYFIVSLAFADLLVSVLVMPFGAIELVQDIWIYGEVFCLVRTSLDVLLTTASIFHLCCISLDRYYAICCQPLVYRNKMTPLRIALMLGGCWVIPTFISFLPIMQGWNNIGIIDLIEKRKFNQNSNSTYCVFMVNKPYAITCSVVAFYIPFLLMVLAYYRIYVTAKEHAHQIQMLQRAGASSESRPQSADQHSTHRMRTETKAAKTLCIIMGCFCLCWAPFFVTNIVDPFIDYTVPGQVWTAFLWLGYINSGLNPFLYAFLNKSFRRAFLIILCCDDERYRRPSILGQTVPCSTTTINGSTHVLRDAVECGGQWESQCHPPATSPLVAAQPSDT

Row | EC50 [1] [nM] | Structure (SMILES) | also measured
1 | 53 | Nc1c(Cl)cc(-c2nnc(CCN3CCCCC3)o2)c2c1CCCO2 [Example 18, 6-Chloro-8-[5-(2-piperidin-1-yl-ethyl)-[1,3,4]oxadiazol-2-yl]-chroman-5-ylamine] | –
2 | 21.5 | Nc1c(Cl)cc(-c2nnc(C3CCN(C4CC4)CC3)o2)c2c1OCCO2 [Example 29, 6-Chloro-8-[5-(1-cyclopropyl-piperidin-4-yl)-[1,3,4]oxadiazol-2-yl]-2,3-dihydro-benzo[1,4]dioxin-5-ylamine oxalate salt] | –
3 | 10 | Nc1c(Cl)cc(-c2nnc(C3CCN(C4CCC4)CC3)o2)c2c1CCO2 [Example 28, 5-Chloro-7-[5-(1-cyclobutyl-piperidin-4-yl)-[1,3,4]oxadiazol-2-yl]-2,3-dihydro-benzofuran-4-ylamine oxalate salt] | –
4 | 16.9 | COCCCN1CCC(c2nnc(-c3cc(Cl)c(N)c4c3OCCO4)o2)CC1 [Example 31, 6-Chloro-8-{5-[1-(3-methoxy-propyl)-piperidin-4-yl]-[1,3,4]oxadiazol-2-yl}-2,3-dihydro-benzo[1,4]dioxin-5-ylamine oxalate salt] | –
5 | – | CC(C)n1nc(-c2nnc(C3CCN(CC4CC4)CC3)o2)c2ccccc21 [Example 39, 3-[5-(1-Cyclopropylmethyl-piperidin-4-yl)-[1,3,4]oxadiazol-2-yl]-1-isopropyl-1H-indazole] | AUC(0-t) ([2]; 5 mg/kg, intravenous (bolus)): 1060 ± 163 ng·h/mL; Tmax ([2]; 5 mg/kg, intravenous (bolus)): 4.8 min; half-life ([2]; 5 mg/kg, intravenous (bolus)): 99 ± 28.2 min; AUC(0-t) ([2]; 10 mg/kg, oral (gavage)): 394 ± 174 ng·h/mL; Tmax ([2]; 10 mg/kg, oral (gavage)): 25.2 ± 7.2 min; half-life ([2]; 10 mg/kg, oral (gavage)): 82.8 ± 4.2 min
6 | 5.7 | Nc1c(Cl)cc(-c2nnc(C3CCN(CC4CCC4)CC3)o2)c2c1CCCO2 [Example 10, 6-Chloro-8-[5-(1-cyclobutylmethyl-piperidin-4-yl)-[1,3,4]oxadiazol-2-yl]-chroman-5-ylamine] | –
7 | 7 | Nc1c(Cl)cc(-c2nnc(C3CCN(C4CCOCC4)CC3)o2)c2c1CCO2 [Example 7, 5-Chloro-7-{5-[1-(tetrahydropyran-4-yl)piperidin-4-yl]-[1,3,4]oxadiazol-2-yl}-2,3-dihydro benzofuran-4-yl amine oxalate salt] | –
8 | 5 | CCOC(=O)N1CCC(N2CCC(c3nnc(-c4cc(Cl)c(N)c5c4OCC5)o3)CC2)CC1 [Example 34, 4-[5-(4-Amino-5-chloro-2,3-dihydro-benzofuran-7-yl)-[1,3,4]oxadiazol-2-yl]-[1,4′]bipiperidinyl-1′-carboxylic acid ethyl ester oxalate] | –
9 | 10.2 | Nc1c(Cl)cc(-c2nnc(C3CCN(CC4CC4)CC3)o2)c2c1CCCO2 [Example 11, 6-Chloro-8-[5-(1-cyclopropylmethyl-piperidin-4-yl)-[1,3,4]oxadiazol-2-yl]-chroman-5-ylamine] | –
10 | 25 | Nc1c(Cl)cc(-c2nnc(C3C4CN(CC5CC5)CC43)o2)c2c1CCCO2 (stereo not drawn) [Example 24, 6-Chloro-8-[5-(3-cyclopropylmethyl-3-aza-bicyclo[3.1.0]hex-6-yl)-[1,3,4]oxadiazol-2-yl]-chroman-5-ylamine] | –
11 | 21 | Nc1c(Cl)cc(-c2nnc(C3CCN(CC4CCOCC4)CC3)o2)c2c1CCO2 [Example 33, 5-Chloro-7-{5-[1-(tetrahydro-pyran-4-ylmethyl)-piperidin-4-yl]-[1,3,4]oxadiazol-2-yl}-2,3-dihydro-benzofuran-4-ylamine oxalate] | –
12 | 6.2 | Nc1c(Cl)cc(-c2nnc(C3CCN(CC4CCC4)CC3)o2)c2c1OCCO2 [Example 15, 6-Chloro-8-[5-(1-cyclobutylmethyl-piperidin-4-yl)-[1,3,4]oxadiazol-2-yl]-2,3-dihydro-benzo[1,4]dioxin-5-ylamine] | Exploration time mean ± S.E.M, Familiar object (Male Wister rats; 1 mg/kg): 12.03 ± 1.73 s; Exploration time mean ± S.E.M, Novel object (Male Wister rats; 1 mg/kg): 19.14 ± 3.02 s; Inference (Male Wister rats; 1 mg/kg): Active
13 | 48 | CC(C)N1CC2C(C1)C2c1nnc(-c2cc(Cl)c(N)c3c2OCCC3)o1 (stereo not drawn) [Example 22, 6-Chloro-8-[5-(3-isopropyl-3-aza-bicyclo[3.1.0]hex-6-yl)-[1,3,4]oxadiazol-2-yl]-chroman-5-ylamine oxalate salt] | –
14 | 20.4 | COCCCN1CCC(c2nnc(-c3cc(Cl)c(N)c4c3OCCC4)o2)CC1 [Example 13, 6-Chloro-8-{5-[1-(3-methoxy-propyl)-piperidin-4-yl]-[1,3,4]oxadiazol-2-yl}-chroman-5-ylamine] | –
15 | 15.3 | CC(C)N1CCC(c2nnc(-c3cc(Cl)c(N)c4c3OCCC4)o2)CC1 [Example 12, 6-Chloro-8-[5-(1-isopropyl-piperidin-4-yl)-[1,3,4]oxadiazol-2-yl]-chroman-5-ylamine] | –
16 | 181 | CC(C)n1nc(-c2nnc(CCN3CCCCC3)o2)c2ccccc21 [Example 49, 1-Isopropyl-3-[5-(2-piperidin-1-yl-ethyl)-[1,3,4]oxadiazol-2-yl]-1H-indazole oxalate] | –
17 | – | COCCCN1CCC(c2nnc(-c3nn(C(C)C)c4ccccc34)o2)CC1.O=C(O)C(=O)O [Example 3, 1-isopropyl-3-{5-[1-(3-methoxypropyl)piperidin-4-yl]-[1,3,4]oxadiazol-2-yl}-1H-indazole oxalate salt] | Tmax ([2]; 5 mg/kg, intravenous (bolus)): 4.8 min; Tmax ([2]; 10 mg/kg, oral (gavage)): 25.2 ± 7.2 min
18 | 20 | Nc1c(Cl)cc(-c2nnc(C3C4CN(CC5CCC5)CC43)o2)c2c1CCCO2 (stereo not drawn) [Example 23, 6-Chloro-8-[5-(3-cyclobutylmethyl-3-aza-bicyclo[3.1.0]hex-6-yl)-[1,3,4]oxadiazol-2-yl]-chroman-5-ylamine oxalate salt] | –
19 | 60 | Nc1c(Cl)cc(-c2nnc(C3CCN(C4CC4)CC3)o2)c2c1CCO2 [Example 27, 5-Chloro-7-[5-(1-cyclopropyl-piperidin-4-yl)-[1,3,4]oxadiazol-2-yl]-2,3-dihydro-benzofuran-4-ylamine oxalate salt] | –
20 | 7.3 | Nc1c(Cl)cc(-c2nnc(C3CCN(C4CCOCC4)CC3)o2)c2c1OCCO2 [Example 30, 6-Chloro-8-{5-[1-(tetrahydro-pyran-4-yl)-piperidin-4-yl]-[1,3,4]oxadiazol-2-yl}-2,3-dihydro-benzo[1,4]dioxin-5-ylamine oxalate salt] | –

Row | Structure (SMILES) | EC50 [1] [nM] | also measured
21 | Nc1c(Cl)cc(-c2nnc(C3CCN(C4CCCC4)CC3)o2)c2c1CCCO2 [Example 17, 6-Chloro-8-[5-(1-cyclopentyl-piperidin-4-yl)-[1,3,4]oxadiazol-2-yl]-chroman-5-ylamine tartarate salt] | 2.3 | –
22 | CCOC(=O)N1CCC(N2CCC(c3nnc(-c4cc(Cl)c(N)c5c4OCCO5)o3)CC2)CC1 [Example 6, 4-[5-(8-amino-7-chloro-2,3-dihydrobenzo[1,4]dioxin-5-yl)-[1,3,4]oxadiazol-2-yl]-[1,4′]bipiperidinyl-1′-carboxylic acid ethyl ester oxalate salt] | 4.2 | –
23 | Nc1c(Cl)cc(-c2nnc(C3CCN(CC4CCOCC4)CC3)o2)c2c1CCCO2.O=C(O)C(=O)O [Example 26, 6-Chloro-8-{5-[1-(tetrahydro-pyran-4-ylmethyl)-piperidin-4-yl]-[1,3,4]oxadiazol-2-yl}-chroman-5-ylamine oxalate salt] | 18 | Exploration time mean ± S.E.M, Familiar object (Male Wister rats; 3 mg/kg): 7.12 ± 1.44 s; Exploration time mean ± S.E.M, Novel object (Male Wister rats; 3 mg/kg): 14.42 ± 2.22 s; Inference (Male Wister rats; 3 mg/kg): Active
24 | Nc1c(Cl)cc(-c2nnc(C3CCN(C4CC4)CC3)o2)c2c1CCCO2.Nc1c(Cl)cc(-c2nnc(C3CCN(C4CC4)CC3)o2)c2c1CCCO2.O=C(O)/C=C/C(=O)O [Example 1, 6-Chloro-8-[5-(1-cyclopropyl-piperidin-4-yl)-[1,3,4]oxadiazol-2-yl]-chroman-5-ylamine hemi fumarate] | 28.5 | Exploration time mean ± S.E.M, Familiar object (Male Wister rats; 3 mg/kg): 5.08 ± 0.1 s; Exploration time mean ± S.E.M, Novel object (Male Wister rats; 3 mg/kg): 13.80 ± 2.20 s; Inference (Male Wister rats; 3 mg/kg): Active

Reference: patent publication US9636335B2, “Heteroaryl compounds as 5-HT4 receptor ligands” (Suven Life Sciences Ltd, priority 2011, dated 2017)
